≈ marks a conversion by molar mass, not a printed value.
Legend:
T. hyodysenteriae (P18a) = assay: Efficacy of M139603 in pigs at low doses (Example 7, Table 7); format: in vivo; set-up: Group weight / Ave. daily weight-gain: unit not given here; settings: for Mortality (+ culls): 42 days, 6 pigs
Experimental: In this studY two groups (Gp.1 and Gp.2) of pigs, six per group, were experimentally infected with a pathogenic strain of T. hyodysenteriae (P18a, IRAD(Institute for Animal Health), Compton, Berks, U.K.) by oro-gastric inoculation of 50 ml of a culture suspension (1×10^7cfu/ml) of the organism into each animal. From post-infection day (PID) to PID 35 the animals in Gp. 1 were offered ad lib a feed comprising "Kwikwean" meal (Rank, Hovis, McDougall Research Ltd; containing no antibiotics) incorporated with M139603 at 25 ppm. Gp.2 remained on unmedicated feed throughout the trial. Drug efficacy was measured primarily on the basis of the number of diarrhoea or dysentery days in relation to pig-days within a group and on the average daily weight gain per pig, in each group over the period of the trial. The daily gain was calculated by dividing group gain at end of trial (PID 35) by the total number of pig-days from PID 1 to PID 35. […] In the experiment the pigs were exposed to high infective doses of the organism a day before the introduction of the drug. Under normal circumstances preventive dose-regimes are applied on animals at risk and not on those already infected.
In this study, eighteen pigs were allocated to three equal groups (Gp.1-3). Feed incorporated with the drug at 25 or 15 ppm was offered to Gp.1 and 2, respectively, on thirty-eight consecutive days commencing six hours pre-infection. Gp.3 remained on unmedicated feed throughout the trial. The pigs were infected with T. hyodysenteriae (strain "P18a") using methods and materials similar to those applied in Example 5. However, seven days following this exposure (post-infection day 7), over a period of seven consecutive days, the pigs in Gp. 1 and 2 were allowed to co-mingle for about two hours each day with some dysenteric "seeder pigs" in a nearby pen. Drug efficacy, as in Example 6, was assessed primarily on the basis of the total number of diarrhoea/dysentery days per group and on the basis of average daily weight gain per pig per group. The results are indicative of the good efficacy of M139603 even at a level as low as 15 ppm feed in preventing swine dysentery. At this dose-level, the daily drug-intake is unlikely to be more than 0.9 mg/kg/body-weight, if daily feed is calculated at 6% of a pig's body-weight.
In this experiment twenty-four pigs were split into four equal groups (Gp. 1-4). Gp. 1 and 2 were offered the drug at 15 or 10 ppm feed on forty-two consecutive days, commencing six hours pre-infection. Gp. 3 (infected) and Gp. 4 (uninfected) remained on unmedicated feed throughout. The infection procedures with T. hyodysenteriae (P18a) were similar to those applied above. Only three groups, Gp. 1, 2 and 3 were infected. Gp. 4 remained uninfected in a well-isolated pen throughout the trial period. Three days following the initial exposure to the infection (post-infection day 3), over a period of five continuous days, the pigs in Gp. 1, 2 and 3 were allowed to co-mingle with dysenteric "seeder pigs" housed in a separate pen. Drug efficacy was measured using the criteria applied in the Examples 5 and 6. […] Thereafter, the differences narrowed, primarily due to the placement of Gp. 3 on tiamulin to prevent further weight losses, and consequent deaths. Despite the number of diarrhoea days observed for Gp. 1 (6.8%) and Gp.

T. hyodysenteriae = assay: Comparative efficacy of M139603 and salinomycin in experimentally infected mice (Example 3, Table 3); format: in vivo, mice (strain MF-1); settings: 30 ppm feed
Text: The infection leads to varying degrees of caecitis, the lesions of which are apparent in animals killed on or about the sixth day post-infection. Caecal specimens examined by bacteriological culture techniques applicable for enumeration of organisms reveal the presence of high populations of T.hyodysenteriae. This disease-model was used in experiments to compare the efficacy of M139603 with that of salinomycin, lasalocid and monensin in suppressing the infection.
In this study, the efficacy of M139603 was tested at 25 ppm feed and that of monensin (Eli Lilly) at 50 or 100 ppm. Groups of infected mice, five per group, were offered the drugs in the feed on five continuous days before killing. Caecal materials were subjected to bacteriological examination to enumerate the populations of viable treponemes per gram of material. […] The group mean in respect of the unmedicated groups was 7.9 cfu/g.
In this study, the efficacy of M139603 was tested at 30 ppm and that of salinomycin at 30, 40 or 60 ppm feed. The mouse-groups and test-procedureswere simi-ar to those applied under Example 2 above.

[1] = tested on: T. hyodysenteriae strain "P18a"; assay: Agar-dilution M.I.C. test of M139603 and analogues (Example 8, Table 8); format: cell-based, Treponema hyodysenteriae; settings: Brachyspira hyodysenteriae, Isosensitest agar with 5% sheep-blood, anaerobic, 39° C., 48-72 hours
Experimental: T. hyodysenteriae strain "P18a" was used in both in vitro and in vivo tests as above.
Minimum inhibitory concentration test: An agar-dilution M.I.C. test procedure was applied in the study. The susceptibility of the bacterial strain was tested against a range of dilutions (0.3 mg; 0.1 mg; 0.03 mg; 0.01 mg and 0.003 mg/l medium) of each compound incorporated in plates of Isosensitest agar (Oxoid CM471) with 5% added sheep-blood. The plates, `spot-inoculated` (Steer's type multipoint inoculator) with a standard culture-suspension of the test strain, were incubated anaerobically at 39° C. for 48-72 hours before reading the results. The M.I.C. of each compound was read as the lowest concentration yielding no growth (no haemolysis) or a hazy growth (faint haemolysis) on the site of the spot-inoculation.

## CO[C@@H](C)[C@H]1C[C@H](C)[C@H]([C@@H](C)/C=C/[C@@H]2CC[C@@H](C)[C@H](/C(=C/[C@H]3CCC[C@@H](C)[C@@H]3[C@H](C)C(=O)C3=C(O)COC3=O)CO)O2)O1 [Analogue M139603, tetronasin]
T. hyodysenteriae (P18a); 10 ppm feed group, post-infection day 44 to 57, inclusive (after withdrawal)
  Ave. daily weight-gain: 0.65
T. hyodysenteriae (P18a); 10 ppm feed
  Mortality (+ culls): 0
T. hyodysenteriae (P18a); 10 ppm feed, day 4 pre-infection to day 22 post-infection
  Ave. daily weight-gain: 0.59
T. hyodysenteriae (P18a); 10 ppm feed, post-infection day 1 to 21
  Percent diarrhoea/dysentery days: 4.8%
T. hyodysenteriae (P18a); 10 ppm feed, post-infection day 1 to 21 (126 pig-days)
  No. diarrhoea/dysentery days: 6 days
T. hyodysenteriae (P18a); 10 ppm feed, post-infection day 1 to 42
  Percent diarrhoea/dysentery days: 11.9%
T. hyodysenteriae (P18a); 10 ppm feed, post-infection day 1 to 42 (252 pig-days)
  No. diarrhoea/dysentery days: 30 days
T. hyodysenteriae (P18a); 10 ppm feed, post-infection day 21, start 66.0
  Group weight: 161.0
T. hyodysenteriae (P18a); 10 ppm feed, post-infection day 23 to 43, inclusive
  Ave. daily weight-gain: 0.83
T. hyodysenteriae (P18a); 10 ppm feed, post-infection day 43 (1 day from withdrawal of medication)
  Group weight: 265.0
T. hyodysenteriae (P18a); 15 or 10 ppm feed
  Average daily weight-gain vs uninfected, unmedicated group: exceeded that recorded for pigs in the uninfected, unmedicated group
T. hyodysenteriae (P18a); 15 or 10 ppm feed, by post-infection day 21
  Weight gain vs unmedicated, infected group: Significant weight gain differences
T. hyodysenteriae (P18a); 15 ppm feed group, post-infection day 44 to 57, inclusive (after withdrawal)
  Ave. daily weight-gain: 0.86
T. hyodysenteriae (P18a); 15 ppm feed
  Mortality (+ culls): 0
T. hyodysenteriae (P18a); 15 ppm feed, day 4 pre-infection to day 22 post-infection
  Ave. daily weight-gain: 0.56
T. hyodysenteriae (P18a); 15 ppm feed, post-infection day 1 to 21
  Percent diarrhoea/dysentery days: 4%
T. hyodysenteriae (P18a); 15 ppm feed, post-infection day 1 to 21 (126 pig-days)
  No. diarrhoea/dysentery days: 5 days
T. hyodysenteriae (P18a); 15 ppm feed, post-infection day 1 to 42
  Percent diarrhoea/dysentery days: 6.8%
T. hyodysenteriae (P18a); 15 ppm feed, post-infection day 1 to 42 (252 pig-days)
  No. diarrhoea/dysentery days: 17 days
T. hyodysenteriae (P18a); 15 ppm feed, post-infection day 21, start 63.7
  Group weight: 153.7
T. hyodysenteriae (P18a); 15 ppm feed, post-infection day 23 to 43, inclusive
  Ave. daily weight-gain: 0.81
T. hyodysenteriae (P18a); 15 ppm feed, post-infection day 43 (1 day from withdrawal of medication)
  Group weight: 225.5
T. hyodysenteriae (P18a); 15 ppm feed, post-infection day 57 (15 days from withdrawal of medication)
  Group weight: 327.5
T. hyodysenteriae (P18a); in the feed
  Feed level found to be effective (lowest): 10 ppm
T. hyodysenteriae
  Suppression of infection: suppressed the infection
T. hyodysenteriae; 5 days, group mean
  Mean (log10) viable treponemes per gram caecum & contents: 0 log10 per gram
T. hyodysenteriae; 5 days, individual mice
  Viable treponemes per gram caecum & contents: negative
[1]
  MIC: 0.01 µg/mL (≈ 0.0166 µM)
